We go through one substance from article PMC4492822 (EMBO Molecular Medicine, 2015).

For one assay, the system named is H1299-DR-GFP cells. Nature of the assay: Homologous recombination reporter assay. The format is cell-based. As to the method: NHEJ was assessed by the functional reporter system H1299-EJ, provided by E Dikomey. […] When these sites are incised by I-SceI, the artificial start codon is removed creating a DSB. Repair of this DSB by NHEJ restores GFP expression, so that cells capable for NHEJ can be identified by their GFP fluorescence intensity (Kriegs et al, [2010]). H1299.EJ cells were plated in a 6-well plate (1 × 10^5 cell/well) and treated with 4–6 μM RK-33. The following day, cells were transfected (in duplicates) with 1–2 μg of pSceI or pEGFP construct using TransIT-LT1 (Mirus, Madison, WI, USA) in serum-free media (Opti-MEM, Invitrogen, Carlsbad, CA, USA). Media was replaced after 4–6 h with complete media. Subsequently, cells were harvested by trypsinization, washed in PBS, and resuspended in 0.5 ml PBS. NHEJ activity was measured on a FACScan I instrument and analyzed on FlowJo software. Recombination frequency was calculated as ((% pSceI − % negative control) / % pEGFP). H1299-DR-GFP cells, provided by RG Bristow, were used to measure homologous recombination similarly as described above (Chan et al, [2008]).
(A reporter such as luciferase makes a cellular process visible.)

In the next assay the test system is A549 cells. The experiment in a line: Colony-forming assay with γ-radiation. The format is cell-based, human. Particulars: 1 μM and 2 μM, added 4 h before radiation. As to the method:
Cells were irradiated at room temperature with 0.5 Gy/min to the desired dose using a Gammacell 40 ^137Cs irradiator. For in vivo experiments, mice were treated using the Small Animal Radiation Research Platform (Wong et al, [2008]). The tumors were irradiated with a circular beam of 1 cm diameter.
Cells were counted, plated, and allowed to attach overnight. RK-33 at specified doses was added 4 h before radiation was delivered. Colonies were stained and counted approximately 10 days after irradiation. Surviving fraction was calculated by dividing the number of colonies formed by the number of cells plated times the plating efficiency. Curves were fitted with a quadratic polynomial equation. P-values were determined by the extra sum of square F-test.

The test system of the next assay is H1299 cells. The experiment in a line: Immunoblotting of cell cycle, apoptosis, MAPK and DNA repair proteins. The assay is classed as cell-based. As to the method: Cell lysate was prepared with TB buffer method. For immunoblotting, ~25 μg protein was loaded on 10% SDS–PAGE gels. […] The blots were developed with clarity Western ECL (Bio-Rad, Hercules, CA, USA) and imaged with G:BOX Chemi XR5 (Syngene, Frederick, MD, USA).

“diimidazo[4,5-d:4′,5′-f]-[1,3]diazepine [RK-33]”: the HR activity entry with H1299-DR-GFP cells was “no changes in HR activity”. In addition, the “sensitization to γ-radiation” value in the assay on A549 cells was “sensitized A549 cells to γ-radiation”. For the same substance, the “DNA repair proteins ATR and XRCC4” value in the assay on H1299 cells (6 μM for 4 h, then 5 Gy) is “decrease of ATR but not XRCC4”. The “phosphorylated ERK2 and ERK1” value with H1299 cells (7.5 μM or 10 μM, 24 h) was “reduction of phosphorylated ERK2 and ERK1”. For the same substance, in the assay with H1299 cells (10 μM, especially evident 2 h after treatment), the “cyclin D1 protein” value is reported as “substantial reduction of cyclin D1”.
